According to PMC10675073, “Effect of Phenolics from Aeonium arboreum on Alpha Glucosidase, Pancreatic Lipase, and Oxidative Stress; a Bio-Guided Approach” (Pharmaceutics, 2023):

What was measured:
[1] = ABTS assay; conditions: for % inhibition: standard curve (Figure S11)
Experimental: In brief, the production of the ABTS radical cation (ABTS•+) involved mixing 5 mL of ABTS aqueous solution (7 mM) with […] of potassium persulfate (140 mM) while the mixture was left at room temperature for 16 h in the dark. […] The absorbance was then measured at 690 nm using a microplate reader (Tecan, USA). According to the following equation, data are shown as means (n = 3) SD:% Inhibition = [(A blank - A sample)/A blank] × 100 Using the linear regression method, the antioxidant effect of the various samples was determined as μM ascorbic acid equivalent.

[2] = Ferric reducing antioxidant power (FRAP) assay
Experimental: The samples were made in a mixture of methanol: DMSO (10:1) at a concentration of 2 mg/mL, while quercetin rhamnoside was made at a concentration of 0.9 mM. To produce the concentration–response curve, seven concentrations, including 7.812, 15.625, 31.25, 62.5, 125, 250, and 500 µM, were created from a stock solution of 1000 µM concentration of ascorbic acid, the positive control. According to the procedure of Benzie et al., this assay was conducted with minor modifications. It depends on Fe^3+ reduction into Fe^2+ which forms a colored complex with 2,4,6-tris (2-pyridyl)-s-[…] (TPTZ). In brief, in a 96-well plate (n = 3), […] of the sample was combined with […] of freshly made TPTZ reagent (300 mM acetate buffer (pH = 3.6), 10 mM TPTZ in 40 mM HCl, and 20 mM FeCl3, in that order; respectively). The reaction was then allowed to run at room temperature for 30 min while kept in a dark place, and the absorbance was measured at 593 nm. Data are shown as means ± SD [26]. […]

[3] = target: T1, porcine pancreatic lipase (PPL) (Sus scrofa, UniProt P00591); experiment: Pancreatic lipase enzyme inhibition (p-NPD); type: biochemical
T1 sequence (P00591 1-450): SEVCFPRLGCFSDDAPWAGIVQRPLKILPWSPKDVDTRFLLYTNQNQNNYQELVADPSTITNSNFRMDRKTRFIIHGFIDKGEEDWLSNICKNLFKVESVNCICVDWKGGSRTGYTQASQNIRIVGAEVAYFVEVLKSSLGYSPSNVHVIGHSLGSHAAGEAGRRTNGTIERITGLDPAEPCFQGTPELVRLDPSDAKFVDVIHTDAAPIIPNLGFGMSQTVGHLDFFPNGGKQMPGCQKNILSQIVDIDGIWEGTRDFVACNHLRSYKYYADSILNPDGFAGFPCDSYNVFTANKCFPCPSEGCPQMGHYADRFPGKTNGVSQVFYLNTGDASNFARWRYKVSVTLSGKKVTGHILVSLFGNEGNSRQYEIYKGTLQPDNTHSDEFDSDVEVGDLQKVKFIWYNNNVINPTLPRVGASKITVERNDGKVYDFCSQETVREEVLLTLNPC
Experimental: P-nitrophenyl dodecanoate (p-NPD from Sigma Aldrich, St. Louis, MO, USA) was used as the substrate, and porcine pancreatic lipase (PPL) was prepared as previously stated by with minor modification. In sum, 25 μL of prepared samples along with a blank were first incubated with 50 µL of PPL (1 mg/mL) in a Tris-HCl buffer (100 mM, pH 8) for 10 min prior to detecting the PPL activity. Following the addition of […] of p-NPD (10 mM in isopropanol), the reaction was then incubated again at 37 °C for 20 min. using […] of Tris-HCl buffer as a volume diluent.

[4] = Oxygen radical absorbance capacity (ORAC) assay; conditions: Table S6; per mM compound
Experimental: Trolox (positive control) was prepared at 2 mM in MeOH then serially diluted into ten concentrations 1000, 800, 700, 600, 500, 400, 300, 200, 100, and 50 μM for the concentration–response curve construction. The total extract and DCM fractions were made at 0.2 mg/mL in methanol, 100% and 50% were prepared at 0.05 mg/mL in methanol, while quercetin rhamnoside was prepared at a concentration of 0.225 mM in methanol. The assay was carried out using Liang et al.’s (2014) methodology, with minor modifications. In brief, 10 μL of the prepared samples were allowed to sit at 37 °C for 10 min with […] of fluoresceine (100 nM). For the background measurement, fluorescence measurements (485 EX, 520 EM, nm) were carried out three times for a total of 90 s each (range 1, Figure 1). Then, 70 μL of freshly made 2,2′-Azobis (2-amidinopropane) dihydrochloride (AAPH) (300 mM) was added to each well. For 60 min (40 cycles, each lasting 90 sec), the measurement of fluorescence (485 EX, 520 EM, nm) was maintained. The antioxidant impact of the samples was determined as the μM Trolox equivalent using the linear regression equation, and the data are shown as means (n = 3) SD.

[5] = Metal chelation assay (Ferrozine)
Experimental: Except for quercetin rhamnoside, all the samples were prepared at a concentration of 0.2 mg/mL in methanol. A stock solution of EDTA (positive control) was made at a concentration of 0.1 mM in water and serially diluted into seven concentrations (80, 70, 60, 50, 40, 20, and 10 μM) for the purpose of creating a concentration–response curve. The method described in [28] was used for the Ferrozine iron metal chelation test, with a few minor adjustments made for microplates. In brief, 50 μL of the sample or substance on a 96-well plate and 50 μL of acetate buffer pH = 6 (n = 6) were combined with 20 μL of newly produced ferrous sulphate (0.3 mM in acetate buffer pH = 6). Then, each well received 30 μL of Ferrozine (0.8 mM in acetate buffer, pH = 6). For 10 min, the reaction mixture was incubated at room temperature. At the completion of the incubation period, the FluoStar Omega microplate reader was used to measure the reduction in the intensity of the produced color. The following equation describes how data are expressed as means ± SD:% Inhibition = [(Average Absorbance of blank − Average Absorbance of Test)/Average Absorbance of blank] × 100
The samples’ antioxidant potential was calculated as μM EDTA equivalents using the linear regression equation.

[6] = target: T2, Saccharomyces cerevisiae α-glucosidase (Saccharomyces cerevisiae, UniProt P53341); experiment: α-glucosidase enzyme inhibition (pNPG, colorimetric); type: biochemical; conditions: pure compounds, read-out: IC50 (Mean ± SE)
T2 construct: purchased Sigma-Aldrich G5003-100UN
T2 sequence (P53341 whole entry): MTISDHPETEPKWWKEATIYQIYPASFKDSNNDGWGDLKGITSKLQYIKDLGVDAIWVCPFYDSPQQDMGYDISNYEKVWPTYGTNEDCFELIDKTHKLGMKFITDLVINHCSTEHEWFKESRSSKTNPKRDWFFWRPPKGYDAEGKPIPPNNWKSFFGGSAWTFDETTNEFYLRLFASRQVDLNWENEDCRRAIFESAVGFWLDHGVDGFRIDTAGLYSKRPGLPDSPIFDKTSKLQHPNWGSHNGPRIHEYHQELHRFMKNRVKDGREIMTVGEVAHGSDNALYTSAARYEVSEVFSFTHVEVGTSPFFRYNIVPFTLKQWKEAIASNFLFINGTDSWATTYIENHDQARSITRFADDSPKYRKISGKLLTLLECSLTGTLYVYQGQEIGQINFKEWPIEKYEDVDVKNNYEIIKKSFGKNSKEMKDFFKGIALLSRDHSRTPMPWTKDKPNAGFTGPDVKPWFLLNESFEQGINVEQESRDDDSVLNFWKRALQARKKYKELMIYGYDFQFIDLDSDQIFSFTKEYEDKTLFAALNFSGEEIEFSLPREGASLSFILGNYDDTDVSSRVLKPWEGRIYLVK
Experimental: Saccharomyces cerevisiae’s α-glucosidase was utilized (Sigma-Aldrich, St. Louis, MO, USA Cat#G5003-100UN). […] Seven concentrations, comprising 31.25, 62.5, 125, 250, 500, 750, and 1000 µM, were prepared from the buffer. […] Using p-nitrophenyl-D-glucopyranoside (pNPG) as a substrate, the inhibitory activity of α-Glucosidase was evaluated colorimetrically by applying the technique described by Gutiérrez-Grijalva et al. with minor modification. In 96-microwell plates, 25 μL of samples/blank were combined with 50 μL of S. cerevisiae α-glucosidase (0.6 U/mL) in phosphate buffer (0.1 M, pH 7) for 10 min at 37 °C. The mixture was then incubated once again for 5 min at 37 °C after the addition of 25 μL of 3 mM pNPG as a substrate in phosphate buffer (pH 7). Utilizing a microplate reader (Tecan, Männedorf, Switzerland) to measure the release of p-nitrophenol from the pNPG substrate at 405 nm, enzyme activity was ascertained [23]. After determining the absorbance (A), the inhibition % of -glucosidase was determined using the formula:% Inhibition = [(A blank − A sample)/A blank] × 100

## CC1OC(Oc2c(-c3ccc(O)c(O)c3)oc3cc(O)cc(O)c3c2=O)C(O)C(O)C1O (stereo not drawn) [Quercetin-3-rhamnoside, quercetin-3-O-α-rhamnoside]
[1]; per mM compound
  ABTS antioxidant activity, ascorbic acid equivalent: 1338.1 ± 81.38 μM AAE/mM
[2]; Table S5, FRAP
  Trolox equivalent per mM sample: 1681.23 µM TE/mM sample
[2]; per mM compound
  FRAP antioxidant activity, Trolox equivalent: 1681.2 ± 49.9 μmolar TE/mM
[3]; 500 µM, read-out: % Inhibition (Mean ± SD)
  inhibition at 500 µM: 19.1 ± 0.34%
[3]; pure compounds, read-out: IC50 (µM) (Mean ± SE)
  IC50: > 500 µM
[4]
  Antioxidant activity using ORAC assay: 25258.39 µMT eq/mM
[5]; Table S7
  EDTA equivalent per mM sample: 377.98 µM eq/ mM sample
[5]; per mM compound
  Metal chelation activity, EDTA equivalent: 377.98 ± 10.17 μmolar EDTAE/mM
[6]
  IC50: 126.4 ± 1.04 µM

## O=C1O[C@H]([C@@H](O)CO)C(O)=C1O [ascorbic acid]
[1]; 7.8125 µM
  % inhibition: 2.8930%
[1]; 15.625 µM
  % inhibition: 3.7803%
[1]; 31.25 µM
  % inhibition: 5.5156%
[1]; 62.5 µM
  % inhibition: 9.7291%
[1]; 125 µM
  % inhibition: 16.88%
[1]; 250 µM
  % inhibition: 33.5451%
[1]; 500 µM
  % inhibition: 62.86%
